Values of other authors in patent US8691283B2, “Standardized bee venom preparation” (priority 2000, dated 2014).

Test system: hypophyseal-adrenal system
Settings: melittin stimulates the hypophyseal-adrenal system and produces cortisone

CC[C@H](C)[C@H](NC(=O)CN)C(=O)NCC(=O)N[C@@H](C)C(=O)N[C@H](C(=O)N[C@@H](CC(C)C)C(=O)N[C@@H](CCCCN)C(=O)N[C@H](C(=O)N[C@@H](CC(C)C)C(=O)N[C@H](C(=O)N[C@H](C(=O)NCC(=O)N[C@@H](CC(C)C)C(=O)N1CCC[C@H]1C(=O)N[C@@H](C)C(=O)N[C@@H](CC(C)C)C(=O)N[C@H](C(=O)N[C@@H](CO)C(=O)N[C@@H](Cc1c[nH]c2ccccc12)C(=O)N[C@H](C(=O)N[C@@H](CCCCN)C(=O)N[C@@H](CCCNC(=N)N)C(=O)N[C@@H](CCCCN)C(=O)N[C@@H](CCCNC(=N)N)C(=O)N[C@@H](CCC(N)=O)C(=O)N[C@@H](CCC(N)=O)C(N)=O)[C@@H](C)CC)[C@@H](C)CC)[C@@H](C)O)[C@@H](C)O)C(C)C)C(C)C [melittin, Melittin]
potency relative to hydrocortisone: 100 times
